In PubChem BioAssay AID2060501 (Molecular Pharmacology Branch, DTP, NCI, 2025):
pIC50: −log10 of the molar value.

Test system: 282377-053-R-J1-PDC complex spheroids, viability
Assay: Anticancer human tumor 282377-053-R-J1-PDC patient-derived colon adenocarcinoma cell line growth inhibition [GQUAD]
Settings: for pIC50: curve of first compound; for viability, T/C: stronger effect = lower value
Procedure, shortened: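 Tumor cells were grown as complex spheroids with HUVEC endothelial cells and mesenchymal stem cells as stroma. G-quadruplex stabilizers were combined with targeted agents over half-log dilutions from near the clinical Cmax, or from 10 microM.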

[1] = second compound 0.0316 µM, first compound 0.0316 µM
[2] = second compound 0.0316 µM, first compound 0.1 µM
[3] = second compound 0.0316 µM, first compound 0.316 µM
[4] = second compound 0.0316 µM, first compound 1 µM
[5] = second compound 0.0316 µM, first compound 3.16 µM
[6] = second compound 0.0316 µM, first compound 10 µM
[7] = second compound 0.1 µM, first compound 0.0316 µM
[8] = second compound 0.1 µM, first compound 0.1 µM
[9] = second compound 0.1 µM, first compound 0.316 µM
[10] = second compound 0.1 µM, first compound 1 µM
[11] = second compound 0.1 µM, first compound 3.16 µM
[12] = second compound 0.1 µM, first compound 10 µM
[13] = second compound 0.316 µM, first compound 0.0316 µM
[14] = second compound 0.316 µM, first compound 0.1 µM
[15] = second compound 0.316 µM, first compound 0.316 µM
[16] = second compound 0.316 µM, first compound 1 µM
[17] = second compound 0.316 µM, first compound 3.16 µM
[18] = second compound 0.316 µM, first compound 10 µM
[19] = second compound 1 µM, first compound 0.0316 µM
[20] = second compound 1 µM, first compound 0.1 µM
[21] = second compound 1 µM, first compound 0.316 µM
[22] = second compound 1 µM, first compound 1 µM
[23] = second compound 1 µM, first compound 3.16 µM
[24] = second compound 1 µM, first compound 10 µM
[25] = second compound 3.16 µM, first compound 0.0316 µM
[26] = second compound 3.16 µM, first compound 0.1 µM
[27] = second compound 3.16 µM, first compound 0.316 µM
[28] = second compound 3.16 µM, first compound 1 µM
[29] = second compound 3.16 µM, first compound 3.16 µM
[30] = second compound 3.16 µM, first compound 10 µM
[31] = second compound 10 µM, first compound 0.0316 µM
[32] = second compound 10 µM, first compound 0.1 µM
[33] = second compound 10 µM, first compound 0.316 µM
[34] = second compound 10 µM, first compound 1 µM
[35] = second compound 10 µM, first compound 3.16 µM
[36] = second compound 10 µM, first compound 10 µM
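Note: spheroids exposed to compounds for 7 days before readout.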
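Throughout, for viability, T/C: percent of vehicle DMSO control viability with 100% = untreated-like growth.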

C=CC(=O)N1CCN(c2nc(=O)n(-c3c(C)ccnc3C(C)C)c3nc(-c4c(O)cccc4F)c(F)cc23)C(C)C1 (stereo unspecified) + Cc1cnc(CNC(=O)c2c(=O)c3ccc(N4CCCN(C)CC4)nc3n3c2sc2ccccc23)cn1
pIC50 (second compound 0.0316 µM): < 5.00 | pIC50 (second compound 0.1 µM): < 5.00 | pIC50 (second compound 0.316 µM): < 5.00 | pIC50 (second compound 1 µM): < 5.00 | pIC50 (second compound 3.16 µM): < 5.00 | pIC50 (second compound 10 µM): 5.43 | viability, T/C [1]: 129% | viability, T/C [2]: 116% | viability, T/C [3]: 115% | viability, T/C [4]: 116% | viability, T/C [5]: 103% | viability, T/C [6]: 100% | viability, T/C [7]: 119% | viability, T/C [8]: 91.7% | viability, T/C [9]: 115% | viability, T/C [10]: 122% | viability, T/C [11]: 110% | viability, T/C [12]: 94.1% | viability, T/C [13]: 89.8% | viability, T/C [14]: 98.9% | viability, T/C [15]: 102% | viability, T/C [16]: 98.3% | viability, T/C [17]: 103% | viability, T/C [18]: 90.8% | viability, T/C [19]: 77.2% | viability, T/C [20]: 64.2% | viability, T/C [21]: 74.7% | viability, T/C [22]: 80.4% | viability, T/C [23]: 76% | viability, T/C [24]: 57.4% | viability, T/C [25]: 60.2% | viability, T/C [26]: 51% | viability, T/C [27]: 63.2% | viability, T/C [28]: 53.6% | viability, T/C [29]: 61.9% | viability, T/C [30]: 53.6% | viability, T/C [31]: 52.2% | viability, T/C [32]: 40.8% | viability, T/C [33]: 58.4% | viability, T/C [34]: 56.6% | viability, T/C [35]: 56.9% | viability, T/C [36]: 33%

CC(C)n1c(=O)n(C)c2cnc3cc(F)c(-c4ccc(OCCCN5CCCCC5)nc4)cc3c21 + Cc1cnc(CNC(=O)c2c(=O)c3ccc(N4CCCN(C)CC4)nc3n3c2sc2ccccc23)cn1
pIC50 (second compound 0.0316 µM): < 5.00 | pIC50 (second compound 0.1 µM): < 5.00 | pIC50 (second compound 0.316 µM): < 5.00 | pIC50 (second compound 1 µM): > 7.50 | pIC50 (second compound 3.16 µM): > 7.50 | pIC50 (second compound 10 µM): > 7.50 | viability, T/C [1]: 101% | viability, T/C [2]: 76.5% | viability, T/C [3]: 102% | viability, T/C [4]: 76.5% | viability, T/C [5]: 94% | viability, T/C [6]: 86.5% | viability, T/C [7]: 84.7% | viability, T/C [8]: 80.2% | viability, T/C [9]: 81.3% | viability, T/C [10]: 90.2% | viability, T/C [11]: 83.7% | viability, T/C [12]: 72.6% | viability, T/C [13]: 69.2% | viability, T/C [14]: 61.9% | viability, T/C [15]: 70.9% | viability, T/C [16]: 76.2% | viability, T/C [17]: 78.5% | viability, T/C [18]: 64.2% | viability, T/C [19]: 47.4% | viability, T/C [20]: 48.3% | viability, T/C [21]: 49.9% | viability, T/C [22]: 46.6% | viability, T/C [23]: 56.8% | viability, T/C [24]: 67.7% | viability, T/C [25]: 48.9% | viability, T/C [26]: 45.8% | viability, T/C [27]: 51.6% | viability, T/C [28]: 43.7% | viability, T/C [29]: 53.5% | viability, T/C [30]: 45.9% | viability, T/C [31]: 44.6% | viability, T/C [32]: 33.5% | viability, T/C [33]: 39.9% | viability, T/C [34]: 45% | viability, T/C [35]: 40.6% | viability, T/C [36]: 23.5%

CCc1c2c(nc3ccc(O)cc13)-c1cc3c(c(=O)n1C2)COC(=O)[C@]3(O)CC + Cc1cnc(CNC(=O)c2c(=O)c3ccc(N4CCCN(C)CC4)nc3n3c2sc2ccccc23)cn1
pIC50 (second compound 0.0316 µM): 7.43 | pIC50 (second compound 0.1 µM): 7.30 | pIC50 (second compound 0.316 µM): 7.61 | pIC50 (second compound 1 µM): 8.06 | pIC50 (second compound 3.16 µM): > 9.00 | pIC50 (second compound 10 µM): > 9.00 | viability, T/C (second compound 0.0316 µM, first compound 0.000999 µM): 117% | viability, T/C (second compound 0.0316 µM, first compound 0.00316 µM): 96.3% | viability, T/C (second compound 0.0316 µM, first compound 0.00999 µM): 57.4% | viability, T/C [1]: 56.4% | viability, T/C (second compound 0.0316 µM, first compound 0.0999 µM): 43.5% | viability, T/C [3]: 27.2% | viability, T/C (second compound 0.1 µM, first compound 0.000999 µM): 88.4% | viability, T/C (second compound 0.1 µM, first compound 0.00316 µM): 79.4% | viability, T/C (second compound 0.1 µM, first compound 0.00999 µM): 57.3% | viability, T/C [7]: 59.4% | viability, T/C (second compound 0.1 µM, first compound 0.0999 µM): 46.5% | viability, T/C [9]: 27.9% | viability, T/C (second compound 0.316 µM, first compound 0.000999 µM): 81.8% | viability, T/C (second compound 0.316 µM, first compound 0.00316 µM): 67.9% | viability, T/C (second compound 0.316 µM, first compound 0.00999 µM): 55% | viability, T/C [13]: 51.5% | viability, T/C (second compound 0.316 µM, first compound 0.0999 µM): 38.5% | viability, T/C [15]: 28.8% | viability, T/C (second compound 1 µM, first compound 0.000999 µM): 66% | viability, T/C (second compound 1 µM, first compound 0.00316 µM): 58.1% | viability, T/C (second compound 1 µM, first compound 0.00999 µM): 44.4% | viability, T/C [19]: 42.9% | viability, T/C (second compound 1 µM, first compound 0.0999 µM): 35.9% | viability, T/C [21]: 25.1% | viability, T/C (second compound 3.16 µM, first compound 0.000999 µM): 46.6% | viability, T/C (second compound 3.16 µM, first compound 0.00316 µM): 41.5% | viability, T/C (second compound 3.16 µM, first compound 0.00999 µM): 37.5% | viability, T/C [25]: 40.9% | viability, T/C (second compound 3.16 µM, first compound 0.0999 µM): 33.4% | viability, T/C [27]: 19.4% | viability, T/C (second compound 10 µM, first compound 0.000999 µM): 46.6% | viability, T/C (second compound 10 µM, first compound 0.00316 µM): 38.4% | viability, T/C (second compound 10 µM, first compound 0.00999 µM): 38.9% | viability, T/C [31]: 40.9% | viability, T/C (second compound 10 µM, first compound 0.0999 µM): 32.6% | viability, T/C [33]: 11.1%
